Like-named read-outs stand apart in the source and are kept apart here.
Experiments:
[1] = target: His-tagged KRAS G12D protein (Homo sapiens (Human), UniProt P01116, G12D); assay: KRAS G12D TR-FRET Assay; type: binding
Experimental: Compounds of interest were prepared in a dose-response titration in DMSO, and 80 nL were added via Labcyte Echo to each well of a 384-well plate (Perkin Elmer 6008280). The His-tagged KRAS G12D protein (Amgen) was diluted to 20 nM in Assay Buffer (20 mM HEPES, pH 7.4, 10 mM MgCl2, 50 mM NaCl, 0.1% BSA, 0.01% Tween-20, 10 μM GDP) and 2 μL was added to the appropriate wells of the 384-well plate. The plate was incubated for 30 minutes at room temperature. Biotinylated KRPep-2d substrate (Amgen) was diluted to 20 nM in Assay Buffer and 2 μL was added to all wells and incubated for 1 hour at room temperature. Detection Reagent (0.4 nM LANCE Eu-W1024 Anti-6×His (Perkin Elmer AD0401), 5 nM streptavidin-d2 (Cisbio 610SADLA)) was prepared in Assay Buffer, then 4 μL was added to the plate and incubated for 1 hour at room temperature. Plates were read using PerkinElmer EnVision (ex: 320 nm, em1: 665 nm, em2: 615 nm) and em1/em2 data was used to generate curve fits using a 4-parameter logistic model to calculate IC50 values.

[2] = target: GDP-bound KRAS protein (aa 1-169), containing both G12D and C118A amino acid substitutions (Homo sapiens (Human), UniProt P01116, C118A/G12D); assay: KRAS G12D Coupled Nucleotide Exchange Assay; type: biochemical
Sequence of GDP-bound KRAS protein (aa 1-169), containing both G12D and C118A amino acid substitutions (P01116 other isoform, or with tags, fused parts or gaps G12D/C118A): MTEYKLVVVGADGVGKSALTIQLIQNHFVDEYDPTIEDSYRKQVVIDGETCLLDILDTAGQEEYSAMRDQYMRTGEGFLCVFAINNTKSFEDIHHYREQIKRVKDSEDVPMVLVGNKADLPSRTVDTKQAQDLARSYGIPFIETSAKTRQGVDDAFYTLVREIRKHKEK
Experimental: KRAS G12D Coupled Nucleotide Exchange Assay
Following compound pre-incubation, purified SOS protein (aa 564-1049) and GTP (Roche 10106399001) were added to the assay wells and incubated for an additional 30 min. To determine the extent of inhibition of SOS-mediated nucleotide exchange, purified GST-tagged cRAF (aa 1-149), nickel chelate AlphaLISA acceptor beads (PerkinElmer AL108R), and AlphaScreen glutathione donor beads (PerkinElmer 6765302) were added to the assay wells and incubated for 10 minutes. The assay plates were then read on a PerkinElmer EnVision Multilabel Reader, using AlphaScreen® technology, and data were analyzed using a 4-parameter logistic model to calculate IC50 values.

[3] = read-out: KRAS G12D Binding IC50
[4] = read-out: KRAS G12D Coupled Exchange IC50
[5] = TR-FRET, read-out: KRAS G12D Binding
[6] = 2 hours compound pre-incubation, read-out: KRAS G12D Coupled Exchange

Sequence of His-tagged KRAS G12D protein (P01116 other isoform, or with tags, fused parts or gaps G12D): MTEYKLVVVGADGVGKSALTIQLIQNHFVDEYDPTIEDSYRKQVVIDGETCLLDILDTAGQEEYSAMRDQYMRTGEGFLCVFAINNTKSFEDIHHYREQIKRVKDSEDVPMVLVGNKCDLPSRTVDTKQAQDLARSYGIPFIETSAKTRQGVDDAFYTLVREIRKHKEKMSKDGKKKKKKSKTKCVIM

SMILES: Cc1cc2[nH]ncc2c2c1CCCCC(=O)OC1CN(CC3(CC3)C1)c1nc(OC[C@@]34CCCN3C[C@H](F)C4)nc3c(F)c-2ncc13 (mixture of isomers) [Example 80, (17′R)-30′-fluoro-24′-(((2R,7aS)-2-fluorotetrahydro-1H-pyrrolo[1,2-a]pyrrol-7a(5H)-yl)methoxy)-9′-methyl-16′-oxa-5′,6′,21′,23′,25′,29′-hexaazaspiro[cyclopropane-1,19′-hexacyclo[24.3.1.1~17,21~.0~2,10~.0~3,7~.0~22,27~]hentriacontane]-1′(30′),2′,4′,7′,9′,22′,24′,26′,28′-nonaen-15′-one]
- IC50 [1, 3]: 55 nM
- IC50 [2, 4]: 47 nM

SMILES: O[C@H]1C[C@@H]2CN(C1)c1nc(OC[C@@]34CCCN3C[C@H](F)C4)nc3c(F)c(ncc13)-c1c(c(Cl)cc3[nH]ncc13)CCCc1nc2no1 (mixture of isomers) [Example 377]
- IC50 [1, 5]: 5 nM
- IC50 [2, 6]: 2 nM

SMILES: Fc1c2ncc3c(nc(OC[C@@]45CCCN4C[C@H](F)C5)nc13)N1CCO[C@@H](C1)c1coc(n1)CCCc1c(Cl)cc3[nH]ncc3c1-2 [Example 389, (18S)-9-chloro-31-fluoro-25-(((2R,7aS)-2-fluorotetrahydro-1H-pyrrolo[1,2-a]pyrrol-7a(5H)-yl)methoxy)-15,19-dioxa-5,6,22,24,26,30,33-heptaazaheptacyclo[25.3.1.1~14,17~.1~18,22~.0~2,10~.0~3,7~.0~23,28~]tritriaconta-1(31),2,4,7,9,14(33),16,23,25,27,29-undecaene]
- IC50 [1, 5]: 3960 nM
- IC50 [2, 6]: 1020 nM

SMILES: Cc1c2ncc3c(nc(OCC45CCC(CC4)O5)nc13)N1CCC[C@](C)(C1)NC(=O)CCCc1c(F)ccc3cc(O)cc-2c13 [Example 23, (15R)-22-Fluoro-27-hydroxy-15,31-dimethyl-8-((1r,4r)-7-oxabicyclo[2.2.1]heptan-1-ylmethoxy)-3,7,9,11,16-pentaazahexacyclo[19.7.1.1˜2,6˜.1˜11,15˜.0˜5,10˜.0˜25,29˜]hentriaconta-1(28),2(31),3,5,7,9,21,23,25(29),26-decaen-17-one]
- IC50 [1, 3]: 160 nM
- IC50 [2, 4]: 111 nM

SMILES: O=C1CCCCc2c(Cl)cc3[nH]ncc3c2-c2ncc3c(nc(OC[C@@]45CCCN4C[C@H](F)C5)nc3c2F)N2C[C@H]3CN1[C@H]3C2 [Example 169, (18S,19R)-9-chloro-30-fluoro-24-(((2R,7aS)-2-fluorotetrahydro-1H-pyrrolo[1,2-a]pyrrol-7a(5H)-yl)methoxy)-5,6,16,21,23,25,29-heptaazaheptacyclo[24.3.1.1~18,21~.0~2,10~.0~3,7~.0~16,19~.0~22,27~]hentriaconta-1(30),2,4,7,9,22,24,26,28-nonaen-15-one]
- IC50 [1, 3]: 616 nM
- IC50 [2, 4]: 339 nM

SMILES: Cc1cc2[nH]ncc2c2c1CCCCO[C@H](C)[C@H]1CN(CCO1)c1nc(OC[C@@]34CCCN3C[C@H](F)C4)nc3c(F)c-2ncc13 [Example 241, (16R,17R)-30-fluoro-24-(((2R,7aS)-2-fluorotetrahydro-1H-pyrrolo[1,2-a]pyrrol-7a(5H)-yl)methoxy)-9,16-dimethyl-15,18-dioxa-5,6,21,23,25,29-hexaazahexacyclo[24.3.1.1~17,21~.0~2,10~.0~3,7~.0~22,27~]hentriaconta-1(30),2,4,7,9,22,24,26,28-nonaene]
- IC50 [1, 3]: 1290 nM
- IC50 [2, 4]: 1410 nM

SMILES: C[C@@]12COCCN(C1)c1nc(OC[C@@]34CCCN3C[C@H](F)C4)nc3c(F)c(ncc13)-c1c3c(cc4[nH]ncc14)CC[C@@H]3CCOC(=O)O2 [Example 366, (16S,22R)-34-fluoro-8-(((2R,7aS)-2-fluorotetrahydro-1H-pyrrolo[1,2-a]pyrrol-7a(5H)-yl)methoxy)-16-methyl-14,17,19-trioxa-3,7,9,11,28,29-hexaazaheptacyclo[20.9.1.1~2,6~.1~11,16~.0~5,10~.0~25,32~.0~27,31~]tetratriaconta-1(31),2(34),3,5,7,9,25(32),26,29-nonaen-18-one]
- IC50 [1, 3]: 938 nM
- IC50 [2, 4]: 631 nM

SMILES: O[C@H]1c2ncc(o2)CCc2c(Cl)cc3[nH]ncc3c2-c2ncc3c(nc(OC[C@@]45CCCN4C[C@H](F)C5)nc3c2F)N2CCC[C@@H]1C2 [Example 234]
- IC50 [1, 3]: 77 nM
- IC50 [2, 4]: 9 nM

SMILES: Fc1c2ncc3c(nc(OC[C@@]45CCCN4C[C@H](F)C5)nc13)N1CCCC[C@@H](C1)c1cnn(n1)CCCc1c(Cl)cc3[nH]ncc3c1-2 [Example 295, (1S)-10-chloro-33-fluoro-24-(((2R,7aS)-2-fluorotetrahydro-1H-pyrrolo[1,2-a]pyrrol-7a(5H)-yl)methoxy)-4,5,13,14,19,23,25,27,34-nonaazaheptacyclo[25.4.1.1~2,5~.1~18,22~.0~9,17~.0~12,16~.0~21,26~]tetratriaconta-2(34),3,9,11,14,16,18(33),19,21,23,25-undecaene]
- IC50 [1, 3]: 2250 nM
- IC50 [2, 4]: 1080 nM

SMILES: Fc1c2ncc3c(nc(OC[C@@]45CCCN4C[C@H](F)C5)nc13)N1CCOC[C@@H](C1)c1cnn(n1)CCCc1c(Cl)cc3[nH]ncc3c1-2 [Example 297, (1S)-10-chloro-33-fluoro-24-(((2R,7aS)-2-fluorotetrahydro-1H-pyrrolo[1,2-a]pyrrol-7a(5H)-yl)methoxy)-30-oxa-4,5,13,14,19,23,25,27,34-nonaazaheptacyclo[25.4.1.1~2,5~.1~18,22~.0~9,17~.0~12,16~.0~21,26~]tetratriaconta-2(34),3,9,11,14,16,18(33),19,21,23,25-undecaene]
- IC50 [1, 3]: 8070 nM
- IC50 [2, 4]: 5980 nM

SMILES: Fc1c2ncc3c(nc(OC[C@@]45CCCN4C[C@H](F)C5)nc13)N1CCC[C@H](C1)Cn1cc(nn1)CCc1c(Cl)cc3[nH]ncc3c1-2 [Example 146]
- IC50 [1, 3]: 77 nM
- IC50 [2, 4]: 65 nM

SMILES: Cc1cc2[nH]ncc2c2c1CCCCC(=O)N1CC3CCN(CC3C1)c1nc(OC[C@@]34CCCN3C[C@H](F)C4)nc3c(F)c-2ncc13 (mixture of isomers) [Example 57]
- IC50 [1, 3]: 221 nM
- IC50 [2, 4]: 194 nM

SMILES: OC1CCCCc2c(Cl)cc3[nH]ncc3c2-c2ncc3c(nc(OC[C@@]45CCCN4C[C@H](F)C5)nc3c2F)N2CCOCC(C1)C2 (stereo partly drawn) [Example 235]
- IC50 [1, 3]: 240 nM
- IC50 [2, 4]: 125 nM

SMILES: Fc1c2ncc3c(nc(OC[C@@]45CCCN4C[C@H](F)C5)nc13)N1CCC[C@H](C1)Oc1nccc(n1)CCc1c(Cl)cc3[nH]ncc3c1-2 [Example 257, (19R)-9-chloro-32-fluoro-26-(((2R,7aS)-2-fluorotetrahydro-1H-pyrrolo[1,2-a]pyrrol-7a(5H)-yl)methoxy)-18-oxa-5,6,16,23,25,27,31,34-octaazaheptacyclo[26.3.1.1~13,17~.1~19,23~.0~2,10~.0~3,7~.0~24,29~]tetratriaconta-1(32),2,4,7,9,13(34),14,16,24,26,28,30-dodecaene]
- IC50 [1, 3]: 262 nM
- IC50 [2, 4]: 178 nM

SMILES: O=C1CCCCc2c(Cl)cccc2-c2ncc3c(nc(OC[C@@]45CCCN4C[C@H](F)C5)nc3c2F)N2CC[C@@H]3CCN1[C@@H]3C2 [Example 163, (25R,29S)-15-chloro-30-fluoro-4-(((2R,7aS)-2-fluorotetrahydro-1H-pyrrolo[1,2-a]pyrrol-7a(5H)-yl)methoxy)-1,3,5,9,22-pentaazahexacyclo[20.5.2.1~6,10~.0~2,7~.0~11,16~.0~25,29~]triaconta-2,4,6,8,10(30),11,13,15-octaen-21-one]
- IC50 [1, 3]: 2840 nM
- IC50 [2, 4]: 1570 nM

Reference: patent publication US20240294551A1 (AMGEN INC., priority 2022, published 2024)
